The record followed here is patent publication US20250345378A1 (priority 2022, published 2025).

The subject of experiment [1] is 304 E. coli clinical isolates. It is filed as cell-based, Escherichia coli. The note with it: 304-isolate panel. As to the method: (§1) Phage cocktail CK618 was tested in combination with and alongside antibiotics against two isolate panels. The first assay used a panel of 88 contemporaneous urinary tract infection (UTI) isolates from North America, Europe, Latin America, and Asia. […] The second assay used a panel made up of a 300-strain clinical isolate panel (Table 14) with an additional 4 strains of interest. […] Four of the same SOC antibiotics tested against the 88-isolate panel were tested against this panel. The non-SOC antibiotics were not included due to their limited use in clinical settings, and nitrofurantoin was not included due to the low probability of resistance to this drug.
(§2) For both isolate panels, antibiotic concentrations tested were determined by using Clinical and Laboratory Standards Institute (CLSI) or European Committee on Antimicrobial Susceptibility Testing (EUCAST) breakpoints at concentrations that kill susceptible isolates but allow intermediate or resistant isolates to grow in the standard AST microdilution assay (Table 17).
(§3) The composition of the proposed Phase 2 CRISPR-enhanced bacteriophage (CRISPR-phage, hereafter termed ‘crPhage’) cocktail (CK618) has been updated from the CK570 to include six bacteriophages as compared to three bacteriophages in CK570. Bacteriophage cocktail CK618, was prepared such that all bacteriophages had equivalent titers in the final cocktail. The cocktail was then mixed with bacteria to obtain final titers of 1×10^6 plaque-forming unit (PFU)/mL/phage for the cocktail and 1×10^5 colony-forming unit (CFU)/mL for the bacteria, resulting in a multiplicity of infection (MOI) of 10 for each bacteriophage in a sample. Briefly, 5 μl of each sample (CK618 alone, CK618 and antibiotics, antibiotics alone, or medium alone) was added to 5 μl of optical density (OD)-normalized bacterial isolate and 40 μl LB medium. Reactions were incubated at 37° C. with shaking and OD measurements were taken each hour for 20 hours.
(§4) Host range percentage is the percent of isolates that responded to treatment of antibiotics or CK618. In the case of the 88-isolate panel, results were analyzed on the complete panel as well as the subset of classified as multidrug-resistant (MDR) (n=21) and beta-lactam-resistant (n=31).
(§5) The first assay used a panel of 88 contemporaneous isolates. Twenty-one of those strains are classified as MDR, with resistance to 3 or more antibiotic classes. […] The second assay used the panel made up of a 300-strain clinical isolate panel with an additional 4 strains of interest.
(§6) Antibiotic concentrations tested were determined by using CLSI or EUCAST breakpoints at concentrations that kill susceptible strains but allow intermediate or resistant strains to grow in the standard AST microdilution assay (Table 27). LBP-EC01 v.2 was combined with bacteria resulting in a MO of 10 for each bacteriophage in a sample. In the case of the 88-isolate panel, results were analyzed on the complete panel as well as the subset of isolates classified as multidrug-resistant (MDR) (n=21) and beta-lactam-resistant (n=31).

Experiment [2] concerns 88 urinary tract infection E. coli isolates. It counts as cell-based, Escherichia coli. Here is the method: as §1, §2, §3, §4, §5, §6
A further experiment concerns E. coli (ATCC 700928). Description: Mouse UTI model, CK618 with TMP/SMX vs single agents and Phase 1b LBP-EC01 (Study 21-LOC-035). It is filed as in vivo, C3H/OuJ mice. The note with it: BID IV at 48, 54, 72, 78, 96 hours p.i. Here is the method: For the LBP-EC01 from the Phase 1b study treatment, animals received the Phase 1 Clinical Trial Material. Bactrim was formulated at a concentration of 6.3 mg/mL.

Like-named read-outs stand apart in the source and are kept apart here.

Regarding Trimethoprim/Sulfamethoxazole [TMP/SXT], in experiment [1], the “Host range % on MDR subset (n = 93), Combination: Antibiotic + LBP-CK618” value is reported as 75.3%; the “Host range % on MDR subset (n = 93), Single agent treatment” value was 17.2%; the “Host range % on beta-lactam-resistant subset (n = 91), Combination: Antibiotic + LBP-CK618” value is listed as 78.0%; the “Host range % on beta-lactam-resistant subset (n = 91), Single agent treatment” value is on record as 29.7%. The “Host Range % on MDR Subset (n = 93), Combination Antibiotic + LBP-EC01 v.2” value in experiment [1] (MDR subset, antibiotic combined with LBP-EC01 v.2) is reported as 75.3%. Also, the “Host range % on MDR subset (n = 93), Single agent treatment” value in experiment [1] (MDR subset, single agent) turned out to be 17.2%. Moreover, the “Host Range % on all Strains (n = 304), Combination: Antibiotic + LBP-EC01 v.2” value in experiment [1] (all strains, antibiotic combined with LBP-EC01 v.2) came out at 81.9%. Further, the “Host Range % on all Strains (n = 304), Single agent treatment” value in experiment [1] (all strains, single agent) is given as 46.4%. Moreover, the “Host Range % on Beta-lactam-Resistant Subset (n = 91), Combination: Antibiotic + LBP-EC01 v.2” value in experiment [1] (beta-lactam-resistant subset, antibiotic combined with LBP-EC01 v.2) turned out to be 78.0%. Besides, the “Host range % on beta-lactam-resistant subset (n = 91), Single agent treatment” value in experiment [1] (beta-lactam-resistant subset, single agent) is 29.7%. In experiment [2] (88-isolate panel), the “Host Range % on Beta-lactam-Resistant Subset (n = 31), Combination: Antibiotic + CK618 v.2” value worked out at 83.9%; the “Host Range % on Beta-lactam-Resistant Subset (n = 31), Single agent treatment” value worked out at 25.8%; the “Host Range % on MDR Subset (n = 21), Combination: Antibiotic + CK618 v.2” value is 82.5%; the “Host Range % on MDR Subset (n = 21), Single agent treatment” value was determined as 19.0%. In addition, the “Host Range % on all Strains (n = 88), Single agent treatment” value in experiment [2] (antibiotic at breakpoint concentration (Table 17), cocktail 1 × 10^6 PFU/ml per bacteriophage, MOI 10) was determined as 42.8%. In addition, the “Host Range % on all Strains (n = 88), Combination: Antibiotic + CK618 v.2” value in experiment [2] (antibiotic at breakpoint concentration plus cocktail 1 × 10^6 PFU/ml per bacteriophage) was found to be 85.6%. The “bacterial burden in bladder relative to vehicle and LBP-EC01 from the Phase 1b study, monotherapy” value in the experiment on E. coli (ATCC 700928) was “significant decrease in bacterial burden”.
